This passage reports MIC results from US9796686B2, “Antibacterial quinazoline-4(3H)-one derivatives” (priority 2014, dated 2017).

Holding throughout (format): cell-based
The subject of one test is E. coli ATCC25922. As to the kind of experiment: Bacterial growth minimal inhibitory concentration, microdilution in cation-adjusted Mueller-Hinton Broth (CLSI M7-A7). As to conditions: Escherichia coli, ATCC25922; quinolone-sensitive strain; read-out: MIC for E. coli ATCC25922. As to the method:
(§1) Minimal Inhibitory Concentrations (MICs; mg/L) were determined in cation-adjusted Mueller-Hinton Broth by a microdilution method following the description given in “Methods for Dilution Antimicrobial Susceptibility Tests for Bacteria that Grow Aerobically”, Approved standard, 7th ed., Clinical and Laboratory Standards Institute (CLSI) Document M7-A7, Wayne, Pa., U.S.A. (2006).
(§2) All Example compounds were tested against several Gram-positive and Gram-negative bacteria. […] K. pneumoniae A-651 is a multiply-resistant strain (in particular quinolone-resistant), while E. coli ATCC25922 and P. aeruginosa ATCC27853 are quinolone-sensitive strains.

In the next test the test system is P. aeruginosa ATCC27853. The test is described as above. The following applies: Pseudomonas aeruginosa, ATCC27853; quinolone-sensitive strain; read-out: MIC for P. aeruginosa ATCC27853. As to the method: as §1, §2
Another test has as its system K. pneumoniae A-651. Described as above. As to conditions: Klebsiella pneumoniae, A651; multiply-resistant strain (in particular quinolone-resistant); read-out: MIC for K. Pneumoniae A-651. As to the method:
as §1, §2

A further test deals with wild-type E. coli A-1261. As to the kind of experiment: MIC against wild-type E. coli A-1261 with or without alkaline phosphatase or esterase. The following applies: Escherichia coli. As to the method: Minimal Inhibitory Concentrations (MICs; mg/L) were determined in cation-adjusted Mueller-Hinton Broth by a microdilution method following the description given in “Methods for Dilution Antimicrobial Susceptibility Tests for Bacteria that Grow Aerobically”, Approved standard, 7th ed., Clinical and Laboratory Standards Institute (CLSI) Document M7-A7, Wayne, Pa., U.S.A. (2006). The compound of Example 31 was tested against wild-type E. coli A-1261 in the absence of alkaline phosphatase, in the presence of an alkaline phosphatase and in the presence of an esterase. The corresponding antibacterial test results are given in Table 2 hereafter (MICs in mg/L).

The structures appear in SMILES notation. ≈ marks a conversion by molar mass, not a printed value. Read-outs that look alike come from different tables or passages of the source.

For `C[C@@](CCn1cnc2cc(C#CC#C[C@@H]3C[C@H]3[C@H](O)CO)ccc2c1=O)(C(=O)NO)S(C)(=O)=O` [Example 26, (R)-4-(7-(((1R,2R)-2-((S)-1,2-dihydroxyethyl)cyclopropyl)buta-1,3-diyn-1-yl)-4-oxoquinazolin-3(4H)-yl)-N-hydroxy-2-methyl-2-(methylsulfonyl)butanamide], the MIC in the test on E. coli ATCC25922, in the test on P. aeruginosa ATCC27853 and with K. pneumoniae A-651 was 1 mg/L (≈ 2.05 µM) throughout.

As to `C[C@@](CCn1cnc2cc(C#CC#CC3CCC(NC(=O)CN)C3)c(F)cc2c1=O)(C(=O)NO)S(C)(=O)=O.Cl` (stereo partly drawn) [Example 27, (R)-4-(7-((3-(2-aminoacetamido)cyclopentyl)buta-1,3-diyn-1-yl)-6-fluoro-4-oxoquinazolin-3(4H)-yl)-N-hydroxy-2-methyl-2-(methylsulfonyl)butanamide hydrochloride], the MIC was 1 mg/L in the test on E. coli ATCC25922, 8 mg/L in the test with P. aeruginosa ATCC27853 and 4 mg/L with K. pneumoniae A-651.

On to `C[C@@](CCn1cnc2cc(C#CC#C[C@@H]3C[C@H]3CN)c(F)cc2c1=O)(C(=O)NO)S(C)(=O)=O.Cl` [Example 28, (R)-4-(7-(((1R,2R)-2-(aminomethyl)cyclopropyl)buta-1,3-diyn-1-yl)-6-fluoro-4-oxoquinazolin-3(4H)-yl)-N-hydroxy-2-methyl-2-(methylsulfonyl)butanamide hydrochloride], for which the MIC in the test with E. coli ATCC25922, with P. aeruginosa ATCC27853 and in the test with K. pneumoniae A-651 was 8 mg/L throughout.

For the molecule `CC(C)(O)C#CC#Cc1cc2ncn(CC[C@](C)(C(=O)NO)S(C)(=O)=O)c(=O)c2cc1F` [Example 29, (R)-4-(6-fluoro-7-(5-hydroxy-5-methylhexa-1,3-diyn-1-yl)-4-oxoquinazolin-3(4H)-yl)-N-hydroxy-2-methyl-2-(methylsulfonyl)butanamide], the MIC with E. coli ATCC25922 was found to be 1 mg/L (≈ 2.16 µM); in the test with P. aeruginosa ATCC27853, 2 mg/L (≈ 4.32 µM); in the test with K. pneumoniae A-651, 1 mg/L (≈ 2.16 µM).

`C[C@@](CCn1cnc2cc(C#CC#CC3(COP(=O)(O)O)CC3)ccc2c1=O)(C(=O)NO)S(C)(=O)=O` [Example 31, (R)-(1-((3-(4-(hydroxyamino)-3-methyl-3-(methylsulfonyl)-4-oxobutyl)-4-oxo-3,4-dihydroquinazolin-7-yl)buta-1,3-diyn-1-yl)cyclopropyl)methyl dihydrogen phosphate]: the MIC in the test with wild-type E. coli A-1261 (alkaline phosphatase 2 i.U./mL, read-out: MIC for E. coli A-1261 In the presence of an alkaline phosphatase (2 i.U./mL)) is 0.5 mg/L; with wild-type E. coli A-1261 (esterase 10 i.U./mL, read-out: MIC for E. coli A-1261 In the presence of an esterase (10 i.U./mL)), above 16 mg/L; with wild-type E. coli A-1261 (no alkaline phosphatase or esterase, read-out: MIC for E. coli A-1261 In the absence of alkaline phosphatase or esterase), above 16 mg/L.

As to `CN(C)CC#CC#Cc1cc2ncn(CC[C@](C)(C(=O)NO)S(C)(=O)=O)c(=O)c2cc1F.O=CO` [Example 32, (R)-4-(7-(5-(dimethylamino)penta-1,3-diyn-1-yl)-6-fluoro-4-oxoquinazolin-3(4H)-yl)-N-hydroxy-2-methyl-2-(methylsulfonyl)butanamide formate], the MIC with E. coli ATCC25922 is 0.25 mg/L; in the test with P. aeruginosa ATCC27853, 2 mg/L; in the test on K. pneumoniae A-651 it was 0.5 mg/L.

For the molecule `C[C@@](CCn1cnc2cc(C#CC#CC3(CO)CCC3)c(F)cc2c1=O)(C(=O)NO)S(C)(=O)=O` [Example 34, (R)-4-(6-fluoro-7-((1-(hydroxymethyl)cyclobutyl)buta-1,3-diyn-1-yl)-4-oxoquinazolin-3(4H)-yl)-N-hydroxy-2-methyl-2-(methylsulfonyl)butanamide], the MIC in the test with E. coli ATCC25922 turned out to be 0.25 mg/L (≈ 0.511 µM); in the test with P. aeruginosa ATCC27853, 2 mg/L (≈ 4.09 µM); with K. pneumoniae A-651, 1 mg/L (≈ 2.04 µM).

As for `C[C@@](CCn1cnc2cc(C#CC#CCC3(O)COC3)c(F)cc2c1=O)(C(=O)NO)S(C)(=O)=O` [Example 35, (R)-4-(6-fluoro-7-(5-(3-hydroxyoxetan-3-yl)penta-1,3-diyn-1-yl)-4-oxoquinazolin-3(4H)-yl)-N-hydroxy-2-methyl-2-(methylsulfonyl)butanamide], the MIC in the test with E. coli ATCC25922, with P. aeruginosa ATCC27853 and in the test with K. pneumoniae A-651 was 4 mg/L (≈ 8.14 µM) throughout.
